Experimental data reported in patent publication US20220127297A1, “Novel Antibacterial 3"-Derivatives Of 4,6-Disubstituted 2,5-Dideoxystreptamine Aminoglycoside Antibiotics” (AGILeBiotics B.V., priority 2018, published 2022).
In brackets after ≈: the same amount, converted by molar mass.

How the values were obtained:
[1] = test system: E. coli (APH(3′)IIIa); experiment: MIC 50, broth micro-dilution, E. coli expressing APH(3′)IIIa; format: cell-based, Escherichia coli
Procedure: (§1) Plasmid transformation. Approximately 500 ng of the pET-9b(+) (Cat. No. 69432-3, Merck), pAT21-1 (provided by Prof. Dr. Patrice Courvalin, M.D., Pasteur Institute, France; prepared according to Trieu-Cuot et. al, Mol. Gen. Genet. 198(2), 348 (1985)), pBluescript::AAC(6′)-Ie/APH(2″)-Ia (provided by Prof. Dr. Sergei Vakulenko, M.D., University of Notre Dame, Ind., USA; prepared according to S. B. Vakulenko et. al., J. Biol. Chem. 287 (52), 43262 (2012)), pBlue_lpp_aacC3_rrnC and pSET152 (Cat. No. PVT3395, Life Science Market; prepared according to Bierman et al., Gene 116 (1), 43 (1992)) plasmids, encoding APH(3′)-Ia (SEQ ID NO:2), APH(3′)-IIIa (SEQ ID NO:3), AAC(6′)Ie-APH(2″)-Ia (SEQ ID NO:4), AAC(3)-III (SEQ ID NO:1), and AAC(3)-IV (SEQ ID NO:5) respectively, were individually incubated in a vial of competent cells for 15 min on ice. The cells were subsequently heated to 42° C. for 90 s, and cooled on ice for 1 min. After addition of 900 μL LB, the cells were incubated for 1 h at 37° C. and 200 rpm. Cells were plated on LB-agar supplemented with 50 μg/mL KanaA and incubated for 18 h at 37° C. The next day, a single colony was inoculated in 5 mL LB supplemented with 50 μg/mL and grown for 18 h at 37° C. and 200 rpm. A 200 μL sample of each culture was diluted with 200 μL of 40% v/v glycerol in water, and stored at −80° C. The plasmid was purified from the remaining culture using the Plasmid Miniprep kit. Plasmid DNA was investigated by Eurofins Genomics (Germany) to confirm the identity of the aminoglycoside resistance genes.
(§2) 3.1 Against E. coli Strains
(§3) Tested reference compounds. Amikacin sulfate (Cat. No. 01693, Chem-Impex), Gentamicin sulfate (Cat. No. G4918, Sigma Aldrich).
(§4) Microbial strains. E. coli ATCC 25922, E. coli ATCC 25922/pET-9b(+), E. coli ATCC 25922/pAT21-1, E. coli ATCC 25922/pBluescript::AAC(6′)-Ie/APH(2″)-Ia, E. coli ATCC 25922/pBlue_lpp_aacC3_rrnC, E. coli ATCC 25922/pSET152.
(§5) Culture media and equipment. BBL™ Mueller Hinton Broth 2 (Lot. BCBW1143, Cat. No. 70192, Sigma); Kanamycin A (Cat. No. A1493, AppliChem); 96-well deep well plate, 1 mL (Cat. No. 0030506.200, Eppendorf); Plate lids (Cat. No. 0030131.525, Eppendorf); 96-well plate, F-bottom (Cat. No. 781602, Brand; Incubator, Infors Multitron Pro); Laminar flow (Heraeus KS12); UV/VIS meter (Eppendorf BioPhotometer Plus); Platereader (Tecan Sunrise).
(§6) Compound preparation. Compounds were prepared in MH2 media at a concentration of 5 mM and stored at 4° C. For testing, solutions of 128 μM were prepared in MH2. Out of these working solutions, 400 μL was transferred to wells in the first column of 96-well deep well plates. Each compound was transferred in triplicate. Plates were previously filled with 200 μL of MH2 media in all wells except for the wells in the first column. After compound and antibiotic addition, the compounds were serial two-fold diluted by transferring 200 μL from the first to the second column, then from the second to the third column and so on. Finally, 200 μL was removed from the last column.
Inoculum preparation. Microorganisms used were all revived from 20% glycerol (40% v/v glycerol in water was diluted with MH2) storage at −80° C. by inoculating them in 5 mL MH2. inoculums of E. coli containing a plasmid were selected for by adding 50 μg/mL KanaA. The Inoculums were grown to an optical density (measured by UV/Vis spectroscopy) of 0.6-0.8 at 600 nm. Out of these suspensions, actual inoculums were prepared by diluting them to an optical density (OD) of 0.1 in MH2 media. From these inoculums, 200 μL was transferred to each well, resulting in a final compound concentration range of 64 μM-31.3 nM. All plates were incubated at 900 rpm and 70% rH for 18 h at 37° C.
MIC determination. After 18 h of growth, 200 μL was transferred to a 96-well F-bottom plate. The optical density was determined by a plate reader at 600 nm, with 10 s shaking before reading. Triplicate measurements were averaged, and a growth curve was plotted in Microsoft Excel. […]

[2] = test system: E. coli (AAC(3)III); experiment: MIC 50, broth micro-dilution, E. coli expressing AAC(3)III; format: cell-based, Escherichia coli
Excerpt: Cloning resistant enzymes. An Escherichia coli codon optimized gene encoding AAC(3)-III (GenBank acc.nr. X55652.1; SEQ ID NO:1), including a promoter and terminator sequence, was synthesized by Integrated DNA Technologies, Belgium. The synthesized gene and pBluescript II KS(+) plasmid were digested using the restriction enzymes SacI and SalI, and purified from a 1% TBE-agarose gel using the illustra Gel Band purification kit. The purified linear plasmid and T4 DNA ligase were used to ligate aac(3)-III under control of the constitutive lipoprotein Ipp promoter and ribosomal RNA rrnC terminator, resulting in pBlue_Ipp_aacC3_rrnC.
as §1, §2, §3, §4, §5, §6
Inoculum preparation. Microorganisms used were all revived from 20% glycerol (40% v/v glycerol in water was diluted with MH2) storage at −80° C. by inoculating them in 5 mL MH2. inoculums of E. coli containing a plasmid were selected for by adding 50 μg/mL KanaA.

[3] = Escherichia coli, ATCC25922, ATCC25922 harboring plasmid encoding APH(3′)IIIa
[4] = Escherichia coli, ATCC25922, ATCC25922 harboring plasmid encoding AAC(3)III
[5] = ATCC25922 harboring plasmid encoding APH(3′)IIIa
[6] = ATCC25922 harboring plasmid encoding AAC(3)III

Compound | MIC50 [1, 3] | MIC50 [2, 4] | MIC50 [1, 5] | MIC50 [2, 6]
CNCCNC(=N)NC1[C@@H](O)C(OC2[C@@H](F)[C@H](O[C@H]3OC(CN)[C@@H](O)CC3N)C(N)C[C@H]2NC(=O)[C@@H](O)CCN)O[C@H](CO)[C@H]1O (some centres unmarked) [ABX5038, Tobra-AHB-F-Gua 2-(methylamino)ethyl] | 0.25 µM (≈ 0.167 µg/mL) | 0.25 µM (≈ 0.167 µg/mL) |  | 
N=C(N)NC1[C@@H](O)C(OC2[C@@H](F)[C@H](O[C@H]3OC(CNCCO)[C@@H](O)CC3N)C(N)C[C@H]2NC(=O)[C@@H](O)CCN)O[C@H](CO)[C@H]1O (some centres unmarked) [ABX5045, 6N-2-hydroxy-ethyl-Tobra-AHB-F-Gua] | 1 µM (≈ 0.657 µg/mL) | 0.5 to 1 µM (≈ 0.328 to 0.657 µg/mL) |  | 
N=C(N)NC1[C@@H](O)C(OC2[C@@H](F)[C@H](O[C@H]3OC(CN)[C@@H](O)[C@H](O)C3O)C(N)C[C@H]2NC(=O)[C@@H](O)CCN)O[C@H](CO)[C@H]1O (stereo partly drawn) [ABX3003, 3′epi-KanaA-AHB-F-Gua] | 2 µM (≈ 1.26 µg/mL) | 1 µM (≈ 0.63 µg/mL) |  | 
N=C(NCC1CC1)NC1[C@@H](O)C(OC2[C@@H](F)[C@H](O[C@H]3OC(CN)[C@@H](O)CC3N)C(N)C[C@H]2NC(=O)[C@@H](O)CCN)O[C@H](CO)[C@H]1O (some centres unmarked) [ABX5027, Tobra-AHB-F-Gua cyclopropylmethyl] | 0.25 to 0.5 µM (≈ 0.167 to 0.333 µg/mL) | 0.25 µM (≈ 0.167 µg/mL) |  | 
NCC[C@H](O)C(=O)N[C@@H]1CC(N)[C@@H](O[C@H]2OC(CN)[C@@H](O)CC2N)[C@H](O)C1OC1O[C@H](CO)[C@@H](O)C(N)[C@H]1O (some centres unmarked) [ABX5004, Tobra-AHB] |  |  | 4 to 8 µM | 1 µM (≈ 0.569 µg/mL)
N=C(NCc1ccncc1)NC1[C@@H](O)C(OC2[C@@H](F)[C@H](O[C@H]3OC(CN)[C@@H](O)CC3N)C(N)C[C@H]2NC(=O)[C@@H](O)CCN)O[C@H](CO)[C@H]1O (some centres unmarked) [ABX5048, Tobra-AHB-F-Gua pyridin-4-yl methyl] | 0.25 µM (≈ 0.176 µg/mL) | 0.5 to 1 µM (≈ 0.352 to 0.704 µg/mL) |  | 
NCC[C@H](O)C(=O)N[C@@H]1CC(N)[C@@H](O[C@H]2OC(CN)[C@@H](O)[C@@H](O)C2N)[C@H](F)C1OC1O[C@H](CO)[C@@H](O)C(N)[C@H]1O (stereo partly drawn) [ABX4003, 3′Epi-KanaB-AHB-F] |  |  | 8 µM (≈ 4.69 µg/mL) | 2 µM (≈ 1.17 µg/mL)
N=C(N)NC1[C@@H](O)C(OC2[C@@H](O)[C@H](O[C@H]3OC(CN)[C@@H](O)CC3N)C(N)C[C@H]2NC(=O)[C@@H](O)CCN)O[C@H](CO)[C@H]1O (some centres unmarked) [ABX5005, Tobra-AHB-Gua] |  |  | 2 to 4 µM | 0.5 µM (≈ 0.305 µg/mL)
N=C(NC[C@H]1CCNC1)NC1[C@@H](O)C(OC2[C@@H](F)[C@H](O[C@H]3OC(CN)[C@@H](O)CC3N)C(N)C[C@H]2NC(=O)[C@@H](O)CCN)O[C@H](CO)[C@H]1O (stereo partly drawn) [ABX5042, Tobra-AHB-F-Gua (S) pyrrolidine-3-ylmethyl] | 0.25 µM (≈ 0.174 µg/mL) | 0.125 µM (≈ 0.087 µg/mL) |  | 
NCC[C@H](O)C(=O)N[C@@H]1C[C@H](N)[C@@H](O[C@H]2O[C@H](CN)[C@@H](O)[C@H](O)[C@H]2O)[C@H](O)[C@H]1O[C@H]1O[C@H](CO)[C@@H](O)[C@H](N)[C@H]1O [Amikacin, amikacin, reference compound] | 16 to 32 µM (≈ 9.37 to 18.7 µg/mL) | 2 µM (≈ 1.17 µg/mL) |  | 
